We go through 33 compounds from patent US20230150970A1, “AMINOPYRIMIDINE DERIVATIVES AND THEIR USE AS ARYL HYDROCARBON RECEPTOR MODULATORS” (DONG-A ST CO., LTD., priority 2020, published 2023).

Molecules are shown by their SMILES. A value given as a limit tells only on which side of the number the result lay.

For the test, the target named is T1, AhR (Homo sapiens, UniProt P35869).
T1 sequence (P35869 11-848): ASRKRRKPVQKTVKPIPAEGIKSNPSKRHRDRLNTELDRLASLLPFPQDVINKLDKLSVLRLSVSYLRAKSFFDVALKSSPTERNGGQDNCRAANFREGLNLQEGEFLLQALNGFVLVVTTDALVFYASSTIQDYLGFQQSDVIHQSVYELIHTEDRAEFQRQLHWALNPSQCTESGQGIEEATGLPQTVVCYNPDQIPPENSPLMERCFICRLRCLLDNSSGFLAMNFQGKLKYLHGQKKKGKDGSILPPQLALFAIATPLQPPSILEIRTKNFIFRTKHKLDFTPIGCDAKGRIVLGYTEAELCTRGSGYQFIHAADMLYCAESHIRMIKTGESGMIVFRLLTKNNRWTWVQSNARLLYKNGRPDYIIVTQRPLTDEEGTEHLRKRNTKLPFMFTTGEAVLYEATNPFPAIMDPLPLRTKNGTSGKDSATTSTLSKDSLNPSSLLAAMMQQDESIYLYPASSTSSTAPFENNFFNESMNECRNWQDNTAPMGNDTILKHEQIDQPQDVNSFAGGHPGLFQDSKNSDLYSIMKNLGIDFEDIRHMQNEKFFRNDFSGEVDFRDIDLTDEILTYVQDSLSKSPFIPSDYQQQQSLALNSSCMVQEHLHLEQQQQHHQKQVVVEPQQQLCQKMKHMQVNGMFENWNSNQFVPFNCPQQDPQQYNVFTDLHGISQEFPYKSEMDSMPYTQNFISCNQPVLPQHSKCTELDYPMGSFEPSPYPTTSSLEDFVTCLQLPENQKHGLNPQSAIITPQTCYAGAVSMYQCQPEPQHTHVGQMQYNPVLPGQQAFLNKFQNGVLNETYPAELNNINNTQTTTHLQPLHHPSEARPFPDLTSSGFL
The test can be described thus: In Vitro Assay 1: XRE-luciferase reporter assay, antagonism in human cell line (HepG2). As to conditions: Assay 1: AhR-Luc Human Antagonism (IC50, nM), values marked *: kynurenine 50 μM, 6 hours.
Source text: In Vitro XRE-Luciferase Reporter Assay (In Vitro Assay 1, 2, 3) AhR activation leads the induction of target gene expression such as CYP1A1 and CYPIB1 by AhR binding to AhR-responsive DNA elements also known as xenobiotics responsive elements (XREs). The assay for measuring AhR activity herein is the luciferase assay using cell lines transfected with luciferase reporter plasmid containing XREs at the upstream of the reporter gene. Cells transfected with XRE-luciferase reporter (XRE-Luc), plasmid drive luciferase activity reflecting activation and inhibition of AhR in the cells. […] Kynurenine (an endogenous AhR agonist), was used to stimulate cells to test antagonistic properties of the compounds. The half-maximal inhibitory concentration (IC50), or half-maximal effective concentration (EC50), value was calculated using nonlinear regression (four parameters), with Prism8.0 software (GraphPad).
In Vitro Assay 1: Antagonism in Human Cell Line
HepG2 (human hepatoma cell line) cell line with a XRE-luciferase reporter either transiently or stably (Invivogen) were plated in complete medium and incubated at 37° C. in a CO2 incubator. After 24 hours, cells were treated with kynurenine (50* or 200 μM) alone (negative control) or with test compounds for 6 hours. Luciferase activity was measured with a commercial kit such as the Promega Luciferase kit or Invivogen Luciferase kit. Relative luciferase activity (Firefly/Nano-Luc) was used to calculate IC50 values. […] (IC50 values are grouped as A, B, C and D, whereby A: IC50<0.01 μM; B: 0.01<IC50<0.1 μM; C: 0.1<IC50<1.0 μM; D: IC50>1.0 μM)
Regarding `CC(=O)C1(c2ccccc2)CCN(c2cc(-c3ccc(Cl)cc3)nc(-c3cccnc3)n2)CC1` [Example 155, 1-(1-(6-(4-chlorophenyl)-2-(pyridin-3-yl)pyrimidin-4-yl)-4-phenylpiperidin-4-yl)ethan-1-one], the IC50 – broadly, the concentration needed to halve the response being measured – was over 1000 nM.
Consider `Clc1ccc(-c2cc(N3CCC(N4CCOCC4)CC3)nc(-c3cccnc3)n2)cc1` [Example 156, 4-(1-(6-(4-chlorophenyl)-2-(pyridin-3-yl)pyrimidin-4-yl)piperidin-4-yl)morpholine], for which the 50% inhibitory concentration (IC50) is under 10 nM.
The compound `Clc1ccc(-c2cc(N3CCC(c4cc(Cl)cc(Cl)c4)CC3)nc(-c3cccnc3)n2)cc1` [Example 157, 4-(4-chlorophenyl)-6-(4-(3,5-dichlorophenyl)piperidin-1-yl)-2-(pyridin-3-yl)pyrimidine] displayed a half-inhibitory concentration (IC50) of over 1000 nM.
For `Clc1ccc(-c2cc(NCC3CCCN(C4CCCCC4)C3)nc(-c3cccnc3)n2)cc1` (stereo not drawn) [Example 158, 6-(4-chlorophenyl)-N-((1-cyclohexylpiperidin-3-yl)methyl)-2-(pyridin-3-yl)pyrimidin-4-amine], the IC50 fell in the range of 100 to 1000 nM.
Then `Clc1ccc(-c2cc(NCC3CCN(Cc4ccccc4)CC3)nc(-c3cccnc3)n2)cc1` [Example 159, N-((1-benzylpiperidin-4-yl)methyl)-6-(4-chlorophenyl)-2-(pyridin-3-yl)pyrimidin-4-amine], with 100 to 1000 nM; and `CCOC(=O)CC(=O)C1CCN(c2cc(-c3ccc(Cl)cc3)nc(-c3cccnc3)n2)CC1` [Example 160, ethyl 3-(1-(6-(4-chlorophenyl)-2-(pyridin-3-yl)pyrimidin-4-yl)piperidin-4-yl)-3-oxopropanoate], with over 1000 nM.
Then `CCOC(=O)CC1CCN(c2cc(-c3ccc(Cl)cc3)nc(-c3cccnc3)n2)CC1` [Example 161, ethyl 2-(1-(6-(4-chlorophenyl)-2-(pyridin-3-yl)pyrimidin-4-yl)piperidin-4-yl)acetate], with over 1000 nM; and `O[C@H]1CCCN(c2cc(-c3ccc(Cl)cc3)nc(-c3cccnc3)n2)C1` [Example 163, (S)-1-(6-(4-chlorophenyl)-2-(pyridin-3-yl)pyrimidin-4-yl)piperidin-3-ol], with 10 to 100 nM.
For `CN(C)C1CCN(c2cc(-c3ccc(Cl)cc3)nc(-c3cccnc3)n2)C1` (stereo not drawn) [Example 164, 1-(6-(4-chlorophenyl)-2-(pyridin-3-yl)pyrimidin-4-yl)-N,N-dimethylpyrrolidin-3-amine], the IC50 lay within 100 to 1000 nM.
Then `CN(C)CCC1CCCN1c1cc(-c2ccc(Cl)cc2)nc(-c2cccnc2)n1` (stereo not drawn) [Example 165, 2-(1-(6-(4-chlorophenyl)-2-(pyridin-3-yl)pyrimidin-4-yl)pyrrolidin-2-yl)-N,N-dimethylethan-1-amine], with over 1000 nM; and `O=C1CCN(c2cc(-c3ccc(Cl)cc3)nc(-c3cccnc3)n2)CC1` [Example 166, 1-(6-(4-chlorophenyl)-2-(pyridin-3-yl)pyrimidin-4-yl)piperidin-4-one], with 10 to 100 nM.
`CN(c1cc(-c2ccc(Cl)cc2)nc(-c2cccnc2)n1)C1CCNCC1` [Example 167, 6-(4-chlorophenyl)-N-methyl-N-(piperidin-4-yl)-2-(pyridin-3-yl)pyrimidin-4-amine] came in with a half-maximal inhibitory concentration (IC50) of over 1000 nM.
Then `CN1CCCCC1CCNc1cc(-c2ccc(Cl)cc2)nc(-c2cccnc2)n1` (stereo not drawn) [Example 168, 6-(4-chlorophenyl)-N-(2-(1-methylpiperidin-2-yl)ethyl)-2-(pyridin-3-yl)pyrimidin-4-amine], with over 1000 nM; and `CC(Nc1cc(-c2ccc(Cl)cc2)nc(-c2cccnc2)n1)C1CCN(C)CC1` (stereo not drawn) [Example 169, 6-(4-chlorophenyl)-N-(1-(1-methylpiperidin-4-yl)ethyl)-2-(pyridin-3-yl)pyrimidin-4-amine], with over 1000 nM; and `COC(=O)CN1CCC(Nc2cc(-c3ccc(Cl)cc3)nc(-c3cccnc3)n2)CC1` [Example 171, methyl 2-(4-((6-(4-chlorophenyl)-2-(pyridin-3-yl)pyrimidin-4-yl)amino)piperidin-1-yl)acetate], with 10 to 100 nM.
Then `CC(OC(=O)C(F)(F)F)C1CCN(c2cc(-c3ccc(Cl)cc3)nc(-c3cccnc3)n2)CC1` (stereo not drawn) [Example 172, 1-(1-(6-(4-chlorophenyl)-2-(pyridin-3-yl)pyrimidin-4-yl)piperidin-4-yl)ethyl 2,2,2-trifluoroacetate], with under 10 nM; and `CN1CCCC(Nc2cc(-c3ccc(Cl)cc3)nc(-c3cccnc3)n2)C1` (stereo not drawn) [Example 173, 6-(4-chlorophenyl)-N-(1-methylpiperidin-3-yl)-2-(pyridin-3-yl)pyrimidin-4-amine], with 100 to 1000 nM.
Then `Cn1cc(-c2nc(N[C@@H]3CCC[C@@H]3O)cc(-c3ccc(Cl)cc3)n2)cn1` [Example 174, (1S,2R)-2-((6-(4-chlorophenyl)-2-(1-methyl-1H-pyrazol-4-yl)pyrimidin-4-yl)amino)cyclopentan-1-ol], with 100 to 1000 nM; and `Cn1cc(-c2nc(-c3ccc(Cl)cc3)cc(N3CCC[C@@H](O)C3)n2)cn1` [Example 175, (R)-1-(6-(4-chlorophenyl)-2-(1-methyl-1H-pyrazol-4-yl)pyrimidin-4-yl)piperidin-3-ol], with 10 to 100 nM.
Compound `Cn1cc(-c2nc(-c3ccc(Cl)cc3)cc(N3CCC(O)CC3)n2)cn1` [Example 176, 1-(6-(4-chlorophenyl)-2-(1-methyl-1H-pyrazol-4-yl)pyrimidin-4-yl)piperidin-4-ol] registered an IC50 of over 1000 nM.
Then `Cn1cc(-c2nc(-c3ccc(Cl)cc3)cc(N3CCC(CO)CC3)n2)cn1` [Example 177, (1-(6-(4-chlorophenyl)-2-(1-methyl-1H-pyrazol-4-yl)pyrimidin-4-yl)piperidin-4-yl)methanol], with 10 to 100 nM; and `Cn1cc(-c2nc(-c3ccc(Cl)cc3)cc(N3CCC(CCO)CC3)n2)cn1` [Example 178, 2-(1-(6-(4-chlorophenyl)-2-(1-methyl-1H-pyrazol-4-yl)pyrimidin-4-yl)piperidin-4-yl)ethan-1-ol], with 100 to 1000 nM.
Then `Cn1cc(-c2nc(-c3ccc(Cl)cc3)cc(N3CCC(CCCO)CC3)n2)cn1` [Example 179, 3-(1-(6-(4-chlorophenyl)-2-(1-methyl-1H-pyrazol-4-yl)pyrimidin-4-yl)piperidin-4-yl)propan-1-ol], with 100 to 1000 nM.
To `CC1CCN(c2cc(-c3ccc(Cl)cc3)nc(-c3cnn(C)c3)n2)CC1` [Example 180, 4-(4-chlorophenyl)-2-(1-methyl-1H-pyrazol-4-yl)-6-(4-methylpiperidin-1-yl)pyrimidine] belongs over 1000 nM; to `CN1CCN(c2cc(-c3ccc(Cl)cc3)nc(-c3cnn(C)c3)n2)CC1` [Example 181, 4-(4-chlorophenyl)-2-(1-methyl-1H-pyrazol-4-yl)-6-(4-methylpiperazin-1-yl)pyrimidine], 100 to 1000 nM.
`Cn1cc(-c2nc(-c3ccc(Cl)cc3)cc(N3CCN(CCO)CC3)n2)cn1` [Example 182, 2-(4-(6-(4-chlorophenyl)-2-(1-methyl-1H-pyrazol-4-yl)pyrimidin-4-yl)piperazin-1-yl)ethan-1-ol] gave a half-inhibitory concentration (IC50) of 100 to 1000 nM.
Then `Cn1cc(-c2nc(-c3ccc(Cl)cc3)cc(N3CC[C@H](O)C3)n2)cn1` [Example 183, (S)-1-(6-(4-chlorophenyl)-2-(1-methyl-1H-pyrazol-4-yl)pyrimidin-4-yl)pyrrolidin-3-ol], with 100 to 1000 nM.
`Cn1cc(-c2nc(-c3ccc(Cl)cc3)cc(N3CCC(C#N)CC3)n2)cn1` [Example 184, 1-(6-(4-chlorophenyl)-2-(1-methyl-1H-pyrazol-4-yl)pyrimidin-4-yl)piperidine-4-carbonitrile] showed a 50% inhibitory concentration (IC50) of 100 to 1000 nM.
To `Cn1cc(-c2nc(-c3ccc(Cl)cc3)cc(N3CCC[C@@H](CO)C3)n2)cn1` [Example 185, (R)-(1-(6-(4-chlorophenyl)-2-(1-methyl-1H-pyrazol-4-yl)pyrimidin-4-yl)piperidin-3-yl)methanol] belongs 100 to 1000 nM; to `Cn1cc(-c2nc(-c3ccc(Cl)cc3)cc(N3CC[C@@H](O)C3)n2)cn1` [Example 186, (R)-1-(6-(4-chlorophenyl)-2-(1-methyl-1H-pyrazol-4-yl)pyrimidin-4-yl)pyrrolidin-3-ol], over 1000 nM; to `Cn1cc(-c2nc(N[C@@H]3CC[C@H](O)C3)cc(-c3ccc(Cl)cc3)n2)cn1` [Example 187, (1S,3R)-3-((6-(4-chlorophenyl)-2-(1-methyl-1H-pyrazol-4-yl)pyrimidin-4-yl)amino)cyclopentan-1-ol], 100 to 1000 nM.
To `CC[C@H](CO)Nc1cc(-c2ccc(Cl)cc2)nc(-c2cnn(C)c2)n1` [Example 188, (R)-2-((6-(4-chlorophenyl)-2-(1-methyl-1H-pyrazol-4-yl)pyrimidin-4-yl)amino)butan-1-ol] belongs 100 to 1000 nM.
To `Cn1cc(-c2nc(N[C@H]3CC[C@H](O)CC3)cc(-c3ccc(Cl)cc3)n2)cn1` [Example 189, Trans-4-((6-(4-chlorophenyl)-2-(1-methyl-1H-pyrazol-4-yl)pyrimidin-4-yl)amino)cyclohexan-1-ol] belongs 100 to 1000 nM.
